One test has as its system Staphylococcus aureus. Briefly: Antimicrobial activity against Staphylococcus aureus assessed as bacterial growth inhibition. It is filed as functional.
The next test has as its system Micrococcus luteus. Briefly: Antimicrobial activity against Micrococcus luteus assessed as bacterial growth inhibition. It is filed as functional.
For test [1], the system named is Staphylococcus saprophyticus. The experiment in a line: Antimicrobial activity against Staphylococcus saprophyticus assessed as bacterial growth inhibition. It is filed as functional.
The test system of test [2] is Staphylococcus epidermidis. Briefly: Antimicrobial activity against Staphylococcus epidermidis assessed as bacterial growth inhibition. It is filed as functional.
The next test has as its system Bacillus subtilis. The experiment in a line: Antimicrobial activity against Bacillus subtilis assessed as bacterial growth inhibition. It is filed as functional.
The next test deals with Escherichia coli. Briefly: Antimicrobial activity against Escherichia coli assessed as bacterial growth inhibition. It is filed as functional.
In another test the test system is Klebsiella oxytoca. Briefly: Antimicrobial activity against Klebsiella oxytoca assessed as bacterial growth inhibition. It is filed as functional.
The next test concerns Proteus vulgaris. Briefly: Antimicrobial activity against Proteus vulgaris assessed as bacterial growth inhibition. It is filed as functional.
The test system of another test is Proteus mirabilis. Briefly: Antimicrobial activity against Proteus mirabilis assessed as bacterial growth inhibition. It is filed as functional.
The next test has as its system Citrobacter freundii. The experiment in a line: Antimicrobial activity against Citrobacter freundii assessed as bacterial growth inhibition. It is filed as functional.
The test system of another test is Pseudomonas aeruginosa. Briefly: Antimicrobial activity against Pseudomonas aeruginosa assessed as bacterial growth inhibition. It is filed as functional.
A further test has as its system Candida albicans. The experiment in a line: Antimicrobial activity against Candida albicans assessed as bacterial growth inhibition. It is filed as functional.
A further test concerns Mycolicibacterium phlei. Briefly: Antimicrobial activity against Mycobacterium phlei assessed as bacterial growth inhibition. It is filed as functional.
Test [3] concerns the target T1, Type-1 angiotensin II receptor A (Rattus norvegicus, UniProt P25095).
T1 sequence (P25095 whole entry): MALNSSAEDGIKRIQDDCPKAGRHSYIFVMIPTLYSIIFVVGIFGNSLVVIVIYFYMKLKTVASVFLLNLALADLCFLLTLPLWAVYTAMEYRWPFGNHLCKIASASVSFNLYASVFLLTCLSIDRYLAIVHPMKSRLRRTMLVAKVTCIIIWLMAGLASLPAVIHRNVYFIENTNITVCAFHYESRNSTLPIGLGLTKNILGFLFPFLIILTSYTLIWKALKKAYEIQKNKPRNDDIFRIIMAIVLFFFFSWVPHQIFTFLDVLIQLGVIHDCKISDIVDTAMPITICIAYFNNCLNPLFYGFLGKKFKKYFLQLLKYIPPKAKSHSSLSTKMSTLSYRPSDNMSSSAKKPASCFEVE
Briefly: Inhibition of rat adrenal cortex angiotensin II. It is filed as tissue-based.

A further test deals with Rattus norvegicus. The experiment in a line: Inhibition of AII induced mean arterial blood pressure in rat assessed as vasoconstrictor at 5 mg/kg, po. It is filed as functional.

As a reminder, the MIC is the lowest concentration found to suppress growth. A word on the IC50: it is the concentration needed to halve the response being measured. Read a high IC50 as weaker potency in that assay.

The structures appear in SMILES notation. Converted amounts (≈) assume the structure as drawn.

Take `O=c1c2ccc(Cl)cc2nc(/C=C/c2ccc(Cl)cc2)n1-c1ccc(O)cc1`: the MIC (with Staphylococcus aureus; in the test on Micrococcus luteus; in test [1]; in test [2]; with Bacillus subtilis; in the test with Escherichia coli) was 125 µg/mL (≈ 305 µM) throughout. For the same compound, the MIC in the test on Klebsiella oxytoca, in the test with Proteus vulgaris, in the test on Proteus mirabilis, in the test on Citrobacter freundii, in the test with Pseudomonas aeruginosa and with Candida albicans was 125 µg/mL (≈ 305 µM) throughout. The MIC in the test on Mycolicibacterium phlei worked out at 125 µg/mL (≈ 305 µM).
Turning to `O=c1c2ccc(Cl)cc2nc(/C=C/c2ccccc2[N+](=O)[O-])n1-c1ccc(O)cc1`, the minimal inhibitory concentration (MIC) (with Staphylococcus aureus; in the test on Micrococcus luteus; in test [1]; in [2]; in the test with Bacillus subtilis; with Escherichia coli) was 125 µg/mL (≈ 298 µM) each time. Also, the MIC in the test with Klebsiella oxytoca, in the test with Proteus vulgaris, in the test with Proteus mirabilis, with Citrobacter freundii, in the test with Pseudomonas aeruginosa and in the test with Candida albicans was 125 µg/mL (≈ 298 µM) each time. Besides, the minimal inhibitory concentration (MIC) in the test with Mycolicibacterium phlei was 125 µg/mL (≈ 298 µM).
`CCCCc1nc2ccc(C(C)(C)O)cc2c(=O)n1Cc1ccc(-c2ccccc2-c2nn[nH]n2)cc1` returned an IC50 in test [3] of 5 nM. The Activity in the test with Rattus norvegicus came to 65 mmHg.
Consider `O=c1c2ccc(Cl)cc2nc(/C=C/c2ccccc2[N+](=O)[O-])n1-c1ccc(OCC2CO2)cc1` (stereo unspecified), for which the MIC (with Staphylococcus aureus; with Micrococcus luteus; in test [1]; in test [2]; in the test on Bacillus subtilis; in the test with Escherichia coli) was 125 µg/mL (≈ 263 µM) throughout. For the same compound, the minimum inhibitory concentration (MIC) with Klebsiella oxytoca, in the test with Proteus vulgaris, with Proteus mirabilis, with Citrobacter freundii, in the test with Pseudomonas aeruginosa and in the test on Candida albicans was 125 µg/mL (≈ 263 µM) in each case. The minimal inhibitory concentration (MIC) in the test on Mycolicibacterium phlei is 125 µg/mL (≈ 263 µM).
As to `CCCCc1nc2ccc(C(O)C(C)(C)C)cc2c(=O)n1Cc1ccc(-c2ccccc2-c2nn[nH]n2)cc1` (stereo unspecified), in test [3], the half-maximal inhibitory concentration (IC50) is more than 1000 nM. The Activity in the test on Rattus norvegicus worked out at 65 mmHg.
Take `CCOC(=O)Oc1ccc(-n2c(/C=C/c3ccc(Cl)cc3)nc3cc(Cl)ccc3c2=O)cc1`: the MIC (with Staphylococcus aureus; with Micrococcus luteus; in [1]; in test [2]; in the test on Bacillus subtilis; in the test on Escherichia coli) was 125 µg/mL (≈ 260 µM) throughout. Moreover, the minimal inhibitory concentration (MIC) with Klebsiella oxytoca, in the test with Proteus vulgaris, in the test with Proteus mirabilis, with Citrobacter freundii, in the test with Pseudomonas aeruginosa and with Candida albicans was 125 µg/mL (≈ 260 µM) each time. For the same compound, the MIC in the test with Mycolicibacterium phlei was determined as 125 µg/mL (≈ 260 µM).
In test [3], `CCCCc1nc2ccc(COC)cc2c(=O)n1Cc1ccc(-c2ccccc2-c2nn[nH]n2)cc1` registered an IC50 of more than 1000 nM. In the test with Rattus norvegicus, the Activity stood at 65 mmHg.
For the compound `O=c1c2ccc(Cl)cc2nc(/C=C/c2ccc(Cl)cc2)n1-c1ccc(OCC(O)CN2CCCCC2)cc1` (stereo unspecified), the MIC (in the test with Staphylococcus aureus; in the test on Micrococcus luteus; in test [1]; in test [2]; with Bacillus subtilis; in the test on Escherichia coli) was 125 µg/mL (≈ 227 µM) in each case. The MIC in the test on Klebsiella oxytoca, with Proteus vulgaris, with Proteus mirabilis, in the test with Citrobacter freundii, in the test with Pseudomonas aeruginosa and in the test on Candida albicans was 125 µg/mL (≈ 227 µM) throughout. Also, the MIC in the test with Mycolicibacterium phlei is 125 µg/mL (≈ 227 µM).
`O=c1c2ccc([N+](=O)[O-])cc2nc(/C=C/c2ccc(Cl)cc2)n1-c1ccc(O)cc1`: the MIC (in the test on Staphylococcus aureus; in the test with Micrococcus luteus; in [1]; in test [2]; with Bacillus subtilis; with Escherichia coli) was 125 µg/mL (≈ 298 µM) each time. In addition, the MIC with Klebsiella oxytoca, with Proteus vulgaris, in the test with Proteus mirabilis, in the test with Citrobacter freundii, in the test with Pseudomonas aeruginosa and with Candida albicans was 125 µg/mL (≈ 298 µM) in each case. The MIC with Mycolicibacterium phlei was 125 µg/mL (≈ 298 µM).
In turn, `CCCCc1nc2ccc(C(C)(C)OC)cc2c(=O)n1Cc1ccc(-c2ccccc2-c2nn[nH]n2)cc1` [CL-329167] gave an IC50 in test [3] of 18 nM. Also, the Activity with Rattus norvegicus was found to be 65 mmHg.
For `CCCCc1nc2ccc(C(C)OC)cc2c(=O)n1Cc1ccc(-c2ccccc2-c2nn[nH]n2)cc1` (stereo unspecified) the same measures were 18 nM and 65 mmHg.
As to `O=c1c2ccc(Cl)cc2nc(/C=C/c2ccc(Cl)cc2)n1-c1ccc(OCC2CO2)cc1` (stereo unspecified), the MIC (in the test on Staphylococcus aureus; in the test with Micrococcus luteus; in test [1]; in test [2]; with Bacillus subtilis; in the test with Escherichia coli) was 125 µg/mL (≈ 269 µM) each time. In addition, the MIC with Klebsiella oxytoca, in the test on Proteus vulgaris, in the test on Proteus mirabilis, in the test on Citrobacter freundii, with Pseudomonas aeruginosa and with Candida albicans was 125 µg/mL (≈ 269 µM) each time. The MIC in the test with Mycolicibacterium phlei amounted to 125 µg/mL (≈ 269 µM).
Turning to `CCOC(=O)Oc1ccc(-n2c(/C=C/c3ccc(Cl)cc3)nc3cc([N+](=O)[O-])ccc3c2=O)cc1`, the MIC (with Staphylococcus aureus; with Micrococcus luteus; in test [1]; in [2]; with Bacillus subtilis; with Escherichia coli) was 125 µg/mL (≈ 254 µM) in each case. Besides, the MIC in the test with Klebsiella oxytoca, with Proteus vulgaris, in the test on Proteus mirabilis, with Citrobacter freundii, in the test on Pseudomonas aeruginosa and in the test on Candida albicans was 125 µg/mL (≈ 254 µM) each time. Moreover, the MIC in the test with Mycolicibacterium phlei was 125 µg/mL (≈ 254 µM).
Regarding `CCCCNC(=O)Oc1ccc(-n2c(/C=C/c3ccc(Cl)cc3)nc3cc(Cl)ccc3c2=O)cc1`, the MIC (with Staphylococcus aureus; with Micrococcus luteus; in test [1]; in [2]; in the test with Bacillus subtilis; in the test with Escherichia coli) was 125 µg/mL (≈ 246 µM) in each case. In addition, the MIC in the test on Klebsiella oxytoca, in the test with Proteus vulgaris, in the test with Proteus mirabilis, in the test on Citrobacter freundii, in the test on Pseudomonas aeruginosa and in the test on Candida albicans was 125 µg/mL (≈ 246 µM) each time. In addition, in the test with Mycolicibacterium phlei, the MIC amounted to 125 µg/mL (≈ 246 µM).
In the case of `CCCCc1nc2ccc(C(O)CO)cc2c(=O)n1Cc1ccc(-c2ccccc2-c2nn[nH]n2)cc1` (stereo unspecified), the IC50 in [3] was more than 1000 nM. In addition, the Activity in the test on Rattus norvegicus came out at 65 mmHg.
Consider `CCCCc1nc2ccc(C(C)NC(C)=O)cc2c(=O)n1Cc1ccc(-c2ccccc2-c2nn[nH]n2)cc1` (stereo unspecified), for which the concentration for half-maximal inhibition (IC50) in [3] was more than 1000 nM. For the same compound, the Activity with Rattus norvegicus is given as 65 mmHg.
In [3], `CCCCc1nc2ccc(C(CC)OC)cc2c(=O)n1Cc1ccc(-c2ccccc2-c2nn[nH]n2)cc1` (stereo unspecified) had an IC50 of 18 nM. Also, the Activity in the test on Rattus norvegicus is listed as 65 mmHg.
Turning to `O=c1c2ccc([N+](=O)[O-])cc2nc(/C=C/c2ccc(Cl)cc2)n1-c1ccc(OCC2CO2)cc1` (stereo unspecified), the MIC (with Staphylococcus aureus; in the test on Micrococcus luteus; in [1]; in [2]; in the test on Bacillus subtilis; in the test with Escherichia coli) was 125 µg/mL (≈ 263 µM) in each case. Moreover, the minimal inhibitory concentration (MIC) with Klebsiella oxytoca, in the test with Proteus vulgaris, in the test on Proteus mirabilis, in the test on Citrobacter freundii, in the test with Pseudomonas aeruginosa and in the test with Candida albicans was 125 µg/mL (≈ 263 µM) each time. Further, the minimum inhibitory concentration (MIC) in the test with Mycolicibacterium phlei amounted to 125 µg/mL (≈ 263 µM).

The record behind these values is ChEMBL document CHEMBL5260833, “An overview of quinazolines: Pharmacological significance and recent developments” (Eur J Med Chem, 2018).
